Reference: US8716284B2, “Adamantyl diamide derivatives and uses of same” (H. Lundbeck A/S, priority 2008, dated 2014)

The molecules below were run against T1, rat metabotropic glutamate receptor 5 (mGluR5) (Rattus norvegicus, UniProt P31424) (assay: Calcium mobilization assay (FLIPR) for negative or positive allosteric activity, HEK 293 cells). Settings: HEK293, negative allosteric modulation, inhibition of EC80 glutamate response; read-out: FLIPR maximum inhibition.
T1 construct: expressed in transfected cells; host or cells: HEK 293
Type: cell-based
Protocol: The cDNA for rat metabotropic glutamate receptor 5 (mGluR5) was a generous gift from S. Nakanishi (Kyoto University, Kyoto, Japan). The mGluR5 was stably expressed in a HEK 293 cell line and grown in Dulbecco's Modified Eagle Medium (DMEM) (Invitrogen, Carlsbad, Calif.) with supplements (10% bovine calf serum, 4 mM glutamine, 100 units/mL penicillin, 100 μg/mL streptomycin and 0.75 mM G1418) at 37° C., 5% CO2. Twenty-four hours prior to assay, cells were seeded into 384-well black wall microtiter plates coated with poly-D-lysine. Just prior to assay, media was aspirated and cells dye-loaded (25 μL/well) with 3 μM Fluo-4/0.01% pluronic acid in assay buffer (Hank's Balanced Saline Solution (HBSS)): 150 mM NaCl, 5 mM KCl, 1 mM CaCl2, 1 mM MgCl2, plus 20 mM N-2-Hydroxyethylpiperazine-N′-2-ethanesulfonic acid (HEPES), pH 7.4, 0.1% bovine serum albumin (BSA) and 2.5 mM probenicid) for 1 hour in 5% CO2 at 37° C. After excess dye was discarded, cells were washed in assay buffer and layered with a final volume equal to 30 μL/well. Basal fluorescence is monitored in a fluorometric imaging plate reader (FLIPR) (Molecular Devices, Sunnyvale, Calif.) with an excitation wavelength of 488 nm and an emission range of 500 to 560 nm. Laser excitation energy was adjusted so that basal fluorescence readings were approximately 10,000 relative fluorescent units. Cells were stimulated with an EC20 or an EC80 concentration of glutamate in the presence of a compound to be tested, both diluted in assay buffer, and relative fluorescent units were measured at defined intervals (exposure=0.6 sec) over a 3 min period at room temperature. Basal readings derived from negative controls were subtracted from all samples. Maximum change in fluorescence was calculated for each well. Concentration-response curves derived from the maximum change in fluorescence were analyzed by nonlinear regression (Hill equation). A negative modulator can be identified from these concentration-response curves if a compound produces a concentration dependent inhibition of the EC80 glutamate response. […] Examples 11-163 also were tested in the above assay.
A positive modulator can be identified from these concentration-response curves if a compound produces a concentration dependent increase in the EC20 glutamate response.

T1 sequence (P31424 21-1171 isoform P31424-2 limits assumed): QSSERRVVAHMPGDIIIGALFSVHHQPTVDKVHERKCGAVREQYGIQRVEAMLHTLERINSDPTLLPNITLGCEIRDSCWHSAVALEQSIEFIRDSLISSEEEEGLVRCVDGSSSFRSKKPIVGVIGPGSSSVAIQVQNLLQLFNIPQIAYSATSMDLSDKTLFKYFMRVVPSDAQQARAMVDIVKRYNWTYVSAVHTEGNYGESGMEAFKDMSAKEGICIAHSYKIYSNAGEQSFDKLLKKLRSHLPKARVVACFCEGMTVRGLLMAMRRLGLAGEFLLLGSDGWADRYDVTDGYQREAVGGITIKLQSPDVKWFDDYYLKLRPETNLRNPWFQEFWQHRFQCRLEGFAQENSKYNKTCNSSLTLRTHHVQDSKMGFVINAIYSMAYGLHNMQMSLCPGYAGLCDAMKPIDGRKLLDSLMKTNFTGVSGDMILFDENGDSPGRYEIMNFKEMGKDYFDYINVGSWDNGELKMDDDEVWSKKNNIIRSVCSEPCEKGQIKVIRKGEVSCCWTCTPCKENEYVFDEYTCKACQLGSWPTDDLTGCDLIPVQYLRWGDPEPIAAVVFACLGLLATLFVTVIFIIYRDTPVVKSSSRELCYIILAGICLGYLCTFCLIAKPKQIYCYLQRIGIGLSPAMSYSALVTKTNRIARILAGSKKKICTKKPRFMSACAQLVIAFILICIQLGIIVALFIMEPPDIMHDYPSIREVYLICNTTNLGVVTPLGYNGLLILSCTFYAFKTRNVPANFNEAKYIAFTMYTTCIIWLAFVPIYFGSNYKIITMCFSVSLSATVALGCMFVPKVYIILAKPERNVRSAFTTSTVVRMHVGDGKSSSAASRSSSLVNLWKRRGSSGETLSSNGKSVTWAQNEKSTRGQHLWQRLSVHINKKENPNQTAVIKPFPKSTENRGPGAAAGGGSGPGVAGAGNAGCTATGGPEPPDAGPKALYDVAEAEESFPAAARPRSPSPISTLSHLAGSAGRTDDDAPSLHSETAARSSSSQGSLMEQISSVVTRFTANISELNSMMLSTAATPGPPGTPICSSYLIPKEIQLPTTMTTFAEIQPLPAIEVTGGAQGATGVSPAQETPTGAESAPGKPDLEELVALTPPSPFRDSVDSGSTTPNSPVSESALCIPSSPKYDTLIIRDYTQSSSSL

SMILES | Emax [%]
COCCCNc1cccc(C(=O)NC23CC4CC(CC(NC(=O)c5cccc(F)c5)(C4)C2)C3)n1 [Example 241, 6-(3-Methoxy-propylamino)-pyridine-2-carboxylic acid [3-(3-fluoro-benzoylamino)-adamantan-1-yl]-amide] | 63 to 99
O=C(NC12CC3CC(C1)CC(NC(=O)c1ccccn1)(C3)C2)c1ccn2ccnc2c1 [Example 87, Imidazo[1,2-a]pyridine-7-carboxylic acid {3-[(pyridine-2-carbonyl)-amino]-adamantan-1-yl}-amide] | 63 to 99
Cc1cncc(C(=O)NC23CC4CC(CC(NC(=O)c5ccc6ocnc6c5)(C4)C2)C3)n1 [Example 175, Benzoxazole-5-carboxylic acid {3-[(6-methyl-pyrazine-2-carbonyl)-amino]-adamantan-1-yl}-amide] | 63 to 99
O=C(NC12CC3CC(C1)CC(NC(=O)c1cccc(NCCO)n1)(C3)C2)c1cccc(F)c1 [Example 212, 6-(2-Hydroxy-ethylamino)-pyridine-2-carboxylic acid [3-(3-fluoro-benzoylamino)-adamantan-1-yl]-amide] | 63 to 99
Cc1ccc2nc(C(=O)NC34CC5CC(CC(NC(=O)c6ccccn6)(C5)C3)C4)cn2c1 [Example 90, 6-Methyl-imidazo[1,2-a]pyridine-2-carboxylic acid {3-[(pyridine-2-carbonyl)-amino]-adamantan-1-yl}-amide] | 63 to 99
Cc1cc(C(=O)NC23CC4CC(CC(NC(=O)c5ccccn5)(C4)C2)C3)nn1C [Example 109, Pyridine-2-carboxylic acid {3-[(1,5-dimethyl-1H-pyrazole-3-carbonyl)-amino]-adamantan-1-yl}-amide] | 70 to 99
COc1cccc(C(=O)NC23CC4CC(CC(NC(=O)c5ccccn5)(C4)C2)C3)n1 [Example 68, 6-Methoxy-pyridine-2-carboxylic acid {3-[(pyridine-2-carbonyl)-amino]-adamantan-1-yl}-amide] | 63 to 99
CC(=O)NCCNc1cccc(C(=O)NC23CC4CC(CC(NC(=O)c5cccc(C)n5)(C4)C2)C3)n1 [Example 234, 6-(2-Acetylamino-ethylamino)-pyridine-2-carboxylic acid {3-[(6-methyl-pyridine-2-carbonyl)-amino]-adamantan-1-yl}-amide] | 63 to 99
Cc1cccc(C(=O)NC23CC4CC(C2)CC(NC(=O)c2cn5cc(Cl)ccc5n2)(C4)C3)n1 [Example 50, 6-Chloro-imidazo[1,2-a]pyridine-2-carboxylic acid {3-[(6-methyl-pyridine-2-carbonyl)-amino]-adamantan-1-yl}-amide] | 63 to 99
COCCNc1cccc(C(=O)NC23CC4CC(CC(NC(=O)c5cccc(F)c5)(C4)C2)C3)n1 [Example 245, 6-(2-Methoxy-ethylamino)-pyridine-2-carboxylic acid [3-(3-fluoro-benzoylamino)-adamantan-1-yl]-amide] | 63 to 99
Cc1cncc(C(=O)NC23CC4CC(CC(NC(=O)c5cccc(OC(F)F)c5)(C4)C2)C3)n1 [Example 162, 6-Methyl-pyrazine-2-carboxylic acid [3-(3-difluoro-methoxy-benzoylamino)-adamantan-1-yl]-amide] | 70 to 99
O=C(NC12CC3CC(C1)CC(NC(=O)c1cccc(N4CCC(O)CC4)n1)(C3)C2)c1cccc(F)c1 [Example 218, 4-Hydroxy-3,4,5,6-tetrahydro-2H-[1,2′]-bipyridinyl-6′-carboxylic acid [3-(3-fluoro-benzoylamino)-adamantan-1-yl]-amide] | 63 to 99
O=C(NC12CC3CC(C1)CC(NC(=O)c1cc(F)ccn1)(C3)C2)c1ccccn1 [Example 108, 4-Fluoro-pyridine-2-carboxylic acid{3-[(pyridine-2-carbonyl)-amino]-adamantan-1-yl}-amide] | 70 to 99
Cc1cccc(C(=O)NC23CC4CC(CC(NC(=O)c5cc(O)ccn5)(C4)C2)C3)n1 [Example 132, 6-Methyl-pyridine-2-carboxylic acid {3-[(4-hydroxy-pyridine-2-carbonyl)-amino]-adamantan-1-yl}-amide] | 70 to 99
